Legend:
human naïve CD4+ T cells = assay: Nitric oxide formation measured using DAF-FM diacetate; assay type: cell-based; settings: L-arginine-supplemented medium vs normal medium
Description: FIG. 9. Impact of L-citrulline on metabolism, Related to FIG. 3. (A) Human naïve CD4^+ T cells were activated in normal medium or in L-Arg medium. Nitric oxide formation was measured using DAF-FM diacetate at different time points. (B) T cells were activated in control medium (Ctrl, containing 1 mM L-arginine), or in medium supplemented with 3 mM L-arginine (L-Arg) or 3 mM L-citrulline (L-Cit) and harvested at different time points. […] Shown are only metabolites with a log 2 fold change >1 and an adjusted p value of <0.05. n=6 from one donor. Log 2 fold change between 0 and >+2 for L-Orn, L-Arg and L-Cit exemplarily indicated as “high”.

human CD4+ T cell clones = assay: Survival experiment with CRISPR/Cas9 gene knockout T cell clones; assay type: cell-based
Description: Naïve CD4 T cells were activated with plate-bound CD3 and CD28 antibodies. 48 h after activation IL-2 was added to culture media (500 U ml^−1). After a further 3 days of culturing, cells were washed, counted and equal cell numbers were plated in medium devoid of IL-2. The withdrawal medium was no longer supplemented with e.g. L-arginine. Cell viability was assessed with annexin V.
Two to four short guide RNAs (sgRNAs) (Table 1) per gene were designed using the online tool provided by the Zhang laboratory (tools.genome-engineering.org). Oligonucleotide pairs with BsmBI-compatible overhangs were annealed and cloned into the lentiviral vector lentiCRISPR v2 (Addgene plasmid #52961) (Sanjana et al., 2014). […]
To screen for clones with disrupted target genes, individual clones were lysed with sample buffer containing 80 mM Tris pH 6.8, 10.5% glycerol, 2% SDS and 0.00004% Bromophenol blue. Lysate of 100,000 cells was separated by SDS-PAGE followed, blotted onto PVDF membranes and analyzed with antibodies to target proteins, Baz1B (Abeam, ab50850), PSIP1 (Bethyl, A300-848A), DDX17 (Abeam, ab180190), PTPN6 (Santa Cruz, sc-287) or TSN (Sigma, HPA059561). […] To screen for clones with disrupted B2M, single cell clones were stained with an antibody to MHC-1 (eBioscience, HLA-ABC-FITC) and analyzed by flow cytometry.

[1] = test system: CD44hi CD4+ TCR transgenic T cells; assay: Mouse experiment with dietary L-arginine: transferred HA TCR transgenic T cells in draining lymph nodes; assay type: in vivo, BALB/c mice; settings: daily oral 1.5 mg/g body weight, 15 days after immunization with HA110-119 in CFA
Description: 2×10^5 CD90.1^+ CD4^+ HA TCR-transgenic T cells, on a BALB/c background, were adoptively transferred in Wt CD90.2^4 BALB/c mice. The day after, host mice were immunized s.c. with influenza HA110-119 peptide (purchased from Anaspec) emulsified in CFA. L-Arg (1.5 g/kg body weight) or PBS, as control, was daily orally administrated, starting 1 day before T cell transfer and until the end of the experiment. Draining lymph nodes were analyzed on day 15 post immunization for the presence of transferred transgenic memory CD44^hi CD90.1^+ CD4^+ T cells. Sera were collected 30 min after oral L-arginine administration to mice and L-arginine and L-threonine concentrations in sera were measured on a MassTrak (Waters) instrument at the functional genomics center in Zurich. To determine intracellular L-arginine levels, activated T cells were isolated from draining lymph nodes 60 hours after activation and 30 min after the daily L-arginine administration. Metabolites were extracted with hot 70% ethanol and analyzed by HILIC LC-MS/MS.

72 h-activated T cells = assay: Glucose consumption assay; assay type: cell-based, human; settings: L-arginine supplementation, 24 h in fresh medium
Description: FIG. 3. L-arginine globally influences metabolism of activated human T cells. […] Shown are only metabolites with a Log 2 fc>1 and an adjusted p value of <0.05; n=12 from two donors. Log 2 fold change between 0 and >+2 for L-Orn and L-Arg exemplarily indicated as “high”. (B) Differential analysis of the glycolytic pathway between naïve CD4^+ T cells cultured in L-Arg medium or Ctrl medium, 96 h after activation. Log 2 fold changes of proteins and metabolites are color-coded. […] 3-P-Glycerate and 2-P-Glycerate could not be distinguished as they have the same mass. (C) 72 h-activated T cells were plated in fresh medium and glucose consumption was determined enzymatically after 24 h; n=9 from three donors. (D) Seahorse experiment performed with activated (96 h) T cells from one donor. Oligomycin was injected after 56 min, FCCP after 96 min, and antimycin (to inhibit the respiratory chain) after 136 min. Data are representative of 5 independent experiments with different donors. (E,F) Relative oxygen consumption rate (OCR) (E) and relative spare respiratory capacity (SRC) (F) of activated (96 h) T cells; n=12 from three donors. ****p<0.0001 (Student's t-test).
The amount of glucose in media was determined using the Glucose (GO) Assay Kit from Sigma. Consumption was calculated as the difference between glucose content in reference medium (co-incubated medium without cells) and cell supernatants.

N=C(N)NCCC[C@H](N)C(=O)O [L-arginine]
nitric oxide (human naïve CD4+ T cells): did not increase | L-arginine's beneficial effect on T cell survival in BAZ1B, PSIP1 and TSN knockout clones (human CD4+ T cell clones; knockout of BAZ1B, PSIP1 and TSN): significantly reduced | effect of L-arginine on T cell survival in PTPN6 (Shp-1) or B2M knockout clones (human CD4+ T cell clones; knockout of PTPN6 (Shp-1) or B2M): did not alter | CD44hi CD4+ TCR transgenic T cells recovered in draining lymph nodes compared to control mice [1]: Three times more | glucose consumption (72 h-activated T cells): consumed less glucose
